Laboratory results reported in US20260000078A1, “ANTI-MICROBIAL SYSTEM” (The Procter & Gamble Company, priority 2024, published 2026).
Values after ≈ are worked out from the molar mass of the structure shown.

How the values were obtained:
Type in all cases: cell-based
[1] = system: Escherichia coli ATCC 8739; assay: Minimal Kill Concentration (MKC) assay, 96 well plate; conditions: 20-minute contact time
Procedure: (§1) The MKC assay is a 96 well plate method to determine the minimum concentration of a test material or composition needed to kill Gram-negative and Gram-positive bacteria (Escherichia coli ATCC 8739 and Staphylococcus aureus ATCC 6538, respectively). The bacterial suspensions are prepared from 10× freezer stocks with 15% glycerol. The freezer stocks are centrifuged at 13,000×g (Eppendorf Centrifuge […] No. 5417 05483) for 1 minute. The supernatant is removed, and the cell pellet is resuspended in 1 mL saline (Sodium chloride solution 0.9%, Cytiva REF: Z1376), and then transferred to 9 mL saline. The target cfu/ml is 10^8, which is confirmed via serial diluting and plating on TSA plates (Tryptic Soy Agar-Sigma-Aldrich Cat #22091). Then 50 μL of bacteria is added to each well of a 96 well 0.5 mL V-Bottom plate (Greiner bio-one REF: 786201) to make a bacteria plate, one separate plate for each bacterium. The dilutions of the test compounds are prepared in a separate 96 well plate. The test compounds are tested at six dilutions in duplicates or with no replication diluted across the entire plate. The test compounds are prepared in Dimethyl Sulfoxide (Sigma Aldrich GR ACS Cat. No: MX1458-6) or sterile water at 2× the intended test concentration, and then serially diluted in the appropriate vehicle 1:2 across the plate using a multichannel. 50 μL from the test compound plate is added to each well in the bacteria plate all at once using an Integra VIAFLOW 96 channel pipette (Model: VIAFLO 96) and the Integra 300 μL Head (Part No. 6103). With addition of the 2× compounds bacteria plate, the compounds are diluted to a 1× test concentration. The addition of the test compounds to the bacteria wells starts the 20-minute contact time. The plates are mixed well using a Mix-Mate (Eppendorf SE). After 20 minutes, 1 μL from each well of the bacteria plate is transferred to premade Tryptic Soy Agar (TSA) plates (OmniTray Cell Culture Treated w/Lid Sterile, Cat. No: 165218) for spot plating using the Integra VIAFLOW 96 with the Integra 12.5 μL head (Part No. 6101). Then 4 μL from each well of the bacteria/compound plate is transferred to another 96 well plate containing 36 μL of neutralizer broth Modified Letheen Broth (BD Difco Letheen Broth, Modified REF 263010). The contact time is stopped at 20 minutes once the compound plate is neutralized. The plates are mixed well using a Mix-Mate and then 1 μL of the neutralizer+sample mix is transferred to a TSA OmniTray plate using the Integra VIAFLOW and Integra 12.5 μL head. The TSA spot plates are then incubated overnight for 20 hours at 37° C. in an Incubator. This process is done for both bacteria species. After overnight incubation, the plates are removed from the incubator and the results recorded by observing which dilutions had bacterial kill/growth. The last dilution that had kill for both replicates is recorded as the MKC. A positive control of Benzalkonium chloride (Sigma Aldrich Cat. No.: 12060-5G) and vehicle controls are always included in the test.

[2] = system: Staphylococcus aureus ATCC 6538; assay: as above; conditions: 20-minute contact time
Procedure: as §1

[3] = system: Staphylococcus aureus ATCC #6538; assay: Minimum Inhibitory Concentration (MIC) assay with Minimum Biocidal Concentration (MBC); conditions: solvent DMSO; for MBC / MIC: Staphylococcus aureus, ATCC6538; for MBC: read-out: S. aureus MBC (ppm); for MIC: 24±2 hrs at 35° C., OD<50% of growth control, read-out: S. aureus MIC (ppm)
Procedure: The Minimum Inhibitory Concentration (MIC) assay is a 96-well high throughput method that determines the minimum concentration of an active required to inhibit the growth of microorganisms. Compounds are evaluated against the following microorganisms: Staphylococcus aureus ATCC #6538 (American Type Culture Collection, Manassas, Virginia, USA). To prepare solutions, the bacteria are streaked on Tryptic Soy Agar (TSA, Becton Dickinson DIFCO™ Tryptic Soy Agar, Franklin Lakes, NJ, USA) and incubated at 30-35° C. for 18-24 hrs. Confluent growth is transferred to saline (0.85% NaCl and turbidometrically adjusted to a target concentration of 10^7-10^8 CFU/ml. This inoculum solution is further diluted 1:1000 in Tryptic Soy Broth (TSB, Becton Dickinson, Franklin Lakes, NJ, USA) for assay use. Two-fold serial dilutions are prepared in Dimethylsulfoxide (DMSO, Thermo Scientific Pierce DMSO, Sequencing Grade) or sterile water for each test sample. In a sterile 96-well plate, each dilution is further diluted in broth inoculum such that each well contained 5% dilution and 95% broth inoculum. Bacteria and yeast plates were incubated on an orbital shaker (Heidolph Titramax 1000 Vibrating Platform Shaker, 200-300 rpm) for 24±2 hrs at 35° C. After incubation, the optical density (OD) of each well is measured in a spectrophotometer (Victor Nivo Multimode Plate Reader) at 600 nm. […] The MBC was determined as the most dilute concentration with no visible growth.

[4] = most dilute concentration with no visible growth on neutralizing agar

Structure (SMILES) | MKC (ppm) E. coli ([1]; solvent water) | MKC (ppm) S. aureus ([2]; solvent water) | MBC [3, 4] | S. aureus MBC (ppm) [3, 4] | MKC (ppm) E. coli ([1]; solvent DMSO) | MKC (ppm) S. aureus ([2]; solvent DMSO) | MIC [3]
CCCCCCCC(O)CC(=O)O (racemic) [(±)-3-Hydroxydecanoic acid] | 753 ppm | 753 ppm | > 1130 µg/mL |  |  |  | 
CCCCCC(O)CC(=O)O (racemic) [(±)-3-Hydroxyoctanoic acid] | >641 ppm | >641 ppm |  |  |  |  | 
CCCCCCCCCC(O)CC(=O)O (racemic) [DL-β-Hydroxylauric acid] | >865 ppm | >865 ppm |  | 650 ppm |  |  | 
CCCCCCCCCCCC(O)CC(=O)O (racemic) [DL-β-Hydroxymyristic acid] |  |  |  |  | 122 ppm | 244 ppm | 
CCCCCCCCCCCCCC(O)CC(=O)O (racemic) [DL-β-Hydroxypalmitic acid] |  |  |  |  | 136 ppm | >1090 ppm | 
CCCCCCCCC[C@@H](O)CC(=O)O [(3R)-3-hydroxydodecanoic acid] | >865 ppm | 865 ppm |  |  |  |  | 
CCCCCC(CC(=O)O)O[C@@H]1O[C@@H](C)[C@H](O)[C@@H](O)[C@H]1O (stereo partly drawn) [RhaC8, 3-(((2R,3R,4R,5R,6S)-3,4,5-trihydroxy-6-methyltetrahydro-2H-pyran-2-yl)oxy)octanoic acid] | >1225 ppm | >1225 ppm | > 10000 µg/mL |  |  |  | 10000 µg/mL (≈ 32.6 mM)
CCCCCCCC(CC(=O)O)O[C@@H]1O[C@@H](C)[C@H](O)[C@@H](O)[C@H]1O (stereo partly drawn) [RhaC10, 3-(((2R,3R,4R,5R,6S)-3,4,5-trihydroxy-6-methyltetrahydro-2H-pyran-2-yl)oxy)decanoic acid] | >1338 ppm | >1338 ppm | > 10000 µg/mL |  |  |  | > 10000 µg/mL
CCCCCCCCCC(CC(=O)O)O[C@@H]1O[C@@H](C)[C@H](O)[C@@H](O)[C@H]1O (stereo partly drawn) [RhaC12, 3-(((2R,3R,4R,5R,6S)-3,4,5-trihydroxy-6-methyltetrahydro-2H-pyran-2-yl)oxy)dodecanoic acid] | >1450 ppm | 725 ppm | > 10000 µg/mL |  |  |  | 1250 µg/mL (≈ 3.45 mM)
CCCCCCCCCCCC(CC(=O)O)O[C@@H]1O[C@@H](C)[C@H](O)[C@@H](O)[C@H]1O (stereo partly drawn) [RhaC14, 3-(((2R,3R,4R,5R,6S)-3,4,5-trihydroxy-6-methyltetrahydro-2H-pyran-2-yl)oxy)tetradecanoic acid] |  |  | > 10000 µg/mL |  | 781 ppm | 781 ppm | 625 µg/mL (≈ 1.6 mM)
